Values joined by “and” are separate entries in the source; they are usually repeats but may differ in a detail not shown here. Equal values may be shown once.
Tests used:
Details in all cases: incubation time: 72 h
[1] = test system: MCF-10A; experiment: drug sensitivity score (DSS), CellTiter-Glo (DSS (AUC-based score)); higher = stronger drug effect (viability inhibition or cytotoxicity); extreme values may be limits of the assay
Outline: (§1)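 Breast cancer cell lines (20 µl suspension) were seeded into 384-well plates holding compound at 5 concentrations in 10-fold steps over a compound-specific 10,000-fold range, then incubated 72 h. CellTox Green fluorescence (485/520 nm) was read first, then CellTiter-Glo luminescence after 10 min at room temperature. Each plate was normalised to 0.1 % DMSO and a positive kill control. The drug sensitivity score was calculated from the area under the fitted dose-response curve.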

[2] = test system: HCC1599; experiment: as above
Outline: as §1

[3] = test system: HCC1143; experiment: as above
Outline: as §1

[4] = test system: DU-4475; experiment: as above
Outline: as §1

[5] = test system: MDA-MB-436; experiment: as above
Outline: as §1

[6] = test system: CAL-148; experiment: as above
Outline: as §1

[7] = test system: HCC1937; experiment: as above
Outline: as §1

[8] = test system: MDA-MB-468; experiment: as above
Outline: as §1

[9] = test system: BT-474; experiment: as above
Outline: as §1

[10] = test system: MDA-MB-231; experiment: as above
Outline: as §1

[11] = test system: MDA-MB-453; experiment: as above
Outline: as §1

[12] = test system: Hs578T; experiment: as above
Outline: as §1

[13] = test system: MFM-223; experiment: as above
Outline: as §1

[14] = test system: HDQ-P1; experiment: as above
Outline: as §1

[15] = test system: CAL-85-1; experiment: as above
Outline: as §1

[16] = test system: BT-549; experiment: as above
Outline: as §1

[17] = test system: HCC1599; experiment: normalised viability (% of control), CellTiter-Blue; higher = more viable cells (about 100 = DMSO control)
Outline: (§2)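 Breast cancer cell lines in 20 µl suspension were seeded onto 384-well plates pre-loaded with compound dissolved in 5 µl medium, then incubated 72 h. CellTiter-Blue reagent (2.5 µl) was added for 2 h at 37 °C and fluorescence read at 560/590 nm. Each plate was normalised to vehicle (100) and a positive kill control (0), with Z'-factor quality control. The value is normalised viability at one listed concentration of the series.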

[18] = test system: HCC1143; experiment: as above
Outline: as §2

[19] = test system: MDA-MB-436; experiment: as above
Outline: as §2

[20] = test system: SK-BR-3; experiment: as above
Outline: as §2

[21] = test system: MDA-MB-468; experiment: as above
Outline: as §2

[22] = test system: CAL-120; experiment: as above
Outline: as §2

[23] = test system: MDA-MB-231; experiment: as above
Outline: as §2

[24] = test system: MDA-MB-453; experiment: as above
Outline: as §2

| Structure (SMILES) | drug sensitivity score [1] | drug sensitivity score [2] | drug sensitivity score [3] | drug sensitivity score [4] | drug sensitivity score [5] | drug sensitivity score [6] | drug sensitivity score [7] | drug sensitivity score [8] | drug sensitivity score [9] | drug sensitivity score [10] | drug sensitivity score [11] | drug sensitivity score [12] | drug sensitivity score [13] | drug sensitivity score [14] | drug sensitivity score [15] | drug sensitivity score [16] | normalised viability ([17]; 10 nM) | normalised viability ([17]; 1000 nM) [%] | normalised viability ([17]; 10000 nM) | normalised viability ([18]; 10 nM) | normalised viability ([18]; 1000 nM) | normalised viability ([18]; 10000 nM) | normalised viability ([19]; 10 nM) | normalised viability ([19]; 1000 nM) | normalised viability ([19]; 10000 nM) | normalised viability ([20]; 10 nM) | normalised viability ([20]; 1000 nM) | normalised viability ([20]; 10000 nM) | normalised viability ([21]; 10 nM) | normalised viability ([21]; 1000 nM) | normalised viability ([21]; 10000 nM) | normalised viability ([22]; 10 nM) | normalised viability ([22]; 1000 nM) | normalised viability ([22]; 10000 nM) | normalised viability ([23]; 10 nM) | normalised viability ([23]; 1000 nM) | normalised viability ([23]; 10000 nM) | normalised viability ([24]; 3 nM) | normalised viability ([24]; 30 nM) [%] | normalised viability ([24]; 100 nM) [%] |
| --- | --- | --- | --- | --- | --- | --- | --- | --- | --- | --- | --- | --- | --- | --- | --- | --- | --- | --- | --- | --- | --- | --- | --- | --- | --- | --- | --- | --- | --- | --- | --- | --- | --- | --- | --- | --- | --- | --- | --- | --- |
| CCCS(=O)(=O)Nc1ccc(F)c(C(=O)c2c[nH]c3ncc(-c4ccc(Cl)cc4)cc23)c1F [Vemurafenib] | 0 | 0 | 0 | 14.1 | 0 | 0 | 0 | 0 | 0.633 | 0 | 0 | 0 | 0 | 0 | 0.555 | 0 | 77.6% | 87.6 | 90.9% | 95.8% | 102% | 87.4% | 104% | 97.3% | 78.1% | 88.5% | 93.8% | 95% | 113% | 107% | 63.5% | 92.6% | 91.8% | 71.7% | 91.5% | 92.4% | 100% | 96.5% | 93.1 | 80.1 |
| COc1cc([C@@H]2c3cc4c(cc3[C@@H](O[C@@H]3O[C@@H]5CO[C@@H](c6cccs6)O[C@H]5[C@H](O)[C@H]3O)[C@H]3COC(=O)[C@H]23)OCO4)cc(OC)c1O [Teniposide] | 0 | 19 | 12 | 19.4 | 16.8 | 15.7 | 6.71 | 13.5 | 11.7 | 8.09 | 0 | 7.63 | 7.72 | 4.15 | 10.3 | 16.1 | 80.8% | 65.1 | 47.9% | 95.6% | 49.5% | 20.5% | 92.1% | 55.1% | 23.6% | 105% | 20.9% | 7.84% | 99.1% | 54.2% | 15.6% | 108% | 55.9% | 10.3% | 103% | 73.7% | 13.8% | 135% | 92.8 | 109 |
| Nc1ncn([C@H]2C[C@H](O)[C@@H](CO)O2)c(=O)n1 [Decitabine] | 0 | 0 | 0 | 0 | 0 | 0 | 1.42 | 19 | 0.527 | 0 | 0 | 0.0828 | 0 | 0.141 | 0 | 3.92 | 112% and 107% | – | 82% and 106% | 82.7% and 80.8% | 68.5% and 78.8% | 56% and 59.8% | 85% and 75% | 69.6% and 68.2% | 70.5% and 71.4% | 84.5% and 98.1% | 90.2% and 88.1% | 69.1% and 74.5% | 109% and 102% | 28.7% and 29.4% | 27% and 29.1% | 88.1% and 89.4% | 85.4% and 89% | 58.3% and 62.3% | 86.9% and 92.8% | 74% and 92.3% | 69.8% and 71.6% | 107% and 118% | – | – |
| Cc1ccc(-c2cc(C(F)(F)F)nn2-c2ccc(S(N)(=O)=O)cc2)cc1 [Celecoxib] | 0 | 0 | 0 | 0 | 0 | 0 | 0 | 0 | 0 | 0 | 0 | 0 | 0 | 0 | 0 | 0 | 99% | 95.7 | 65.6% | 90.3% | 95.5% | 86% | 99.3% | 77.8% | 80.1% | 87.6% | 90.2% | 79.7% | 96.6% | 107% | 95% | 94.5% | 79.7% | 81.9% | 96.2% | 86.7% | 99.6% | 111% | 97.5 | 103 |
| C[C@H]1C[C@@H]2[C@H]([C@@H](O)C[C@@]3(C)[C@H]2CC[C@]3(O)C(=O)CO)[C@@]2(C)C=CC(=O)C=C12 [Methylprednisolone] | 0 | 0 | 0 | 0 | 0 | 0 | 0 | 0 | 0 | 0 | 0 | 0 | 0 | 1.31 | 0 | 0 | 105% | 102 | 92.5% | 89.8% | 111% | 92.5% | 108% | 92.2% | 108% | 107% | 97.6% | 91.4% | 92.7% | 117% | 88.2% | 89.7% | 79.3% | 81.1% | 104% | 114% | 119% | 112% | 85.6 | 75.3 |
